What all share (assay): cell-based
For assay [1], the target named is hNav1.7 (Homo sapiens, UniProt Q15858). The format is cell-based.
Assay [2] deals with hNav1.5 (Homo sapiens, UniProt Q14524).
For assay [3], the target named is hNav1.3 (Homo sapiens, UniProt Q9NY46).
Where [4] appears, read: IonWorks Quattro, use-dependent, […], read-out: IWQ Use Nav1.5.
[5] abbreviates: IonWorks Quattro, use-dependent, […], read-out: IWQ Use Nav1.3.

Among the data in patent publication US9340590B2 (priority 2011, dated 2016) are IC50 values, retold here.

Where two headings read alike, the source gives them in different places. Positions of bridges follow the written chain, without caps; N, C: chain ends. Residues, ends and D or L forms follow the SMILES beside them.

Sequence of hNav1.7 (Q15858 whole entry, looked up): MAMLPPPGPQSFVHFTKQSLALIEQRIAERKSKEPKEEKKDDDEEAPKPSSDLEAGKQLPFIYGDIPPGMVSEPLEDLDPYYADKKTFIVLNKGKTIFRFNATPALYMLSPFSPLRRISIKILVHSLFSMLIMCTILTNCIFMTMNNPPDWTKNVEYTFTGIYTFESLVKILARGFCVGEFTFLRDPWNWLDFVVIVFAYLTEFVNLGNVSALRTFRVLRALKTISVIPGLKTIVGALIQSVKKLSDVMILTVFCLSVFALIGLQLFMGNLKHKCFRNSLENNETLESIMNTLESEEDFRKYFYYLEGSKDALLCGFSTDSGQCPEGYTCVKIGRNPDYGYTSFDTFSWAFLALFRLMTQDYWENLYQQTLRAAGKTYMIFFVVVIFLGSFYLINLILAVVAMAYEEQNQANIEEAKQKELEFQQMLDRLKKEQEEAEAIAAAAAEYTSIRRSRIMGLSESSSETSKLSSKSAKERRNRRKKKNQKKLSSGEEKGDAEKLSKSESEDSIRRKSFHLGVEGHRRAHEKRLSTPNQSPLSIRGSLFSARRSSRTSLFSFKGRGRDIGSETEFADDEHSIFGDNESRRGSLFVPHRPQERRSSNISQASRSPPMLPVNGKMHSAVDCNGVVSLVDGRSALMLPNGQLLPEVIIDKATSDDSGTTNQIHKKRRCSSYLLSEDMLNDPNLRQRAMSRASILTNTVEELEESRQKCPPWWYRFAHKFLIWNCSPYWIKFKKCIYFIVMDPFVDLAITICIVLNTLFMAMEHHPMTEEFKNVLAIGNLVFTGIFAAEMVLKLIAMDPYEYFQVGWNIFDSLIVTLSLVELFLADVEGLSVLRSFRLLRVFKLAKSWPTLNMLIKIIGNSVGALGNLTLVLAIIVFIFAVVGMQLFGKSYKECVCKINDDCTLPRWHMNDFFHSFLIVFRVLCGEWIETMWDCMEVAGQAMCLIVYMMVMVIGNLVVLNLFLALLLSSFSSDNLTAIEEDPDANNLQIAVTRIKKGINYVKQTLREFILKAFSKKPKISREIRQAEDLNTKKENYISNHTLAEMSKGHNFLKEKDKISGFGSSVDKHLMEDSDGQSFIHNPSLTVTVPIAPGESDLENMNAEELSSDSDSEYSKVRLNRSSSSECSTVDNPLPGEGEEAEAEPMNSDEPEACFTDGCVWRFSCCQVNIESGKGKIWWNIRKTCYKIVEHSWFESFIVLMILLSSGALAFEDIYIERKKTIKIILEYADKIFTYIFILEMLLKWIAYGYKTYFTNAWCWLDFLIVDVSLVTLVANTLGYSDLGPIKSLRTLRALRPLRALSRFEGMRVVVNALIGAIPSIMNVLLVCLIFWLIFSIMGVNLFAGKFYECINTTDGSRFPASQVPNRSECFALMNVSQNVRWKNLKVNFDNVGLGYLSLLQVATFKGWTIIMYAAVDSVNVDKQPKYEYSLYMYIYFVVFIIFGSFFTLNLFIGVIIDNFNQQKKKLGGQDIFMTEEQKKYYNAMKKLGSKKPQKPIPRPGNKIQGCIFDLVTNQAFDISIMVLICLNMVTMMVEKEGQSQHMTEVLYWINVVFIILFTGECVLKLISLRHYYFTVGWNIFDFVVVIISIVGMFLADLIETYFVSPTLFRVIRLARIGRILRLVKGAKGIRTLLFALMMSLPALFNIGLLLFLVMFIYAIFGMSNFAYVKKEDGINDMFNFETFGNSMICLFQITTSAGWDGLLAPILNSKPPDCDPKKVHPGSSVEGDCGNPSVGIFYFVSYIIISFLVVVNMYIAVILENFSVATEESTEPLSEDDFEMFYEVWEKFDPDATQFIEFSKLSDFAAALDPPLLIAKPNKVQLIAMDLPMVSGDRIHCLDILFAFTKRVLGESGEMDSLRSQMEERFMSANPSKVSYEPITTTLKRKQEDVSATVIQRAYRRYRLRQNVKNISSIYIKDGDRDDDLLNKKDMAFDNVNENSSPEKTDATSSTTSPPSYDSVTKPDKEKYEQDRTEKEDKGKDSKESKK
Sequence of hNav1.5 (Q14524 whole entry, looked up): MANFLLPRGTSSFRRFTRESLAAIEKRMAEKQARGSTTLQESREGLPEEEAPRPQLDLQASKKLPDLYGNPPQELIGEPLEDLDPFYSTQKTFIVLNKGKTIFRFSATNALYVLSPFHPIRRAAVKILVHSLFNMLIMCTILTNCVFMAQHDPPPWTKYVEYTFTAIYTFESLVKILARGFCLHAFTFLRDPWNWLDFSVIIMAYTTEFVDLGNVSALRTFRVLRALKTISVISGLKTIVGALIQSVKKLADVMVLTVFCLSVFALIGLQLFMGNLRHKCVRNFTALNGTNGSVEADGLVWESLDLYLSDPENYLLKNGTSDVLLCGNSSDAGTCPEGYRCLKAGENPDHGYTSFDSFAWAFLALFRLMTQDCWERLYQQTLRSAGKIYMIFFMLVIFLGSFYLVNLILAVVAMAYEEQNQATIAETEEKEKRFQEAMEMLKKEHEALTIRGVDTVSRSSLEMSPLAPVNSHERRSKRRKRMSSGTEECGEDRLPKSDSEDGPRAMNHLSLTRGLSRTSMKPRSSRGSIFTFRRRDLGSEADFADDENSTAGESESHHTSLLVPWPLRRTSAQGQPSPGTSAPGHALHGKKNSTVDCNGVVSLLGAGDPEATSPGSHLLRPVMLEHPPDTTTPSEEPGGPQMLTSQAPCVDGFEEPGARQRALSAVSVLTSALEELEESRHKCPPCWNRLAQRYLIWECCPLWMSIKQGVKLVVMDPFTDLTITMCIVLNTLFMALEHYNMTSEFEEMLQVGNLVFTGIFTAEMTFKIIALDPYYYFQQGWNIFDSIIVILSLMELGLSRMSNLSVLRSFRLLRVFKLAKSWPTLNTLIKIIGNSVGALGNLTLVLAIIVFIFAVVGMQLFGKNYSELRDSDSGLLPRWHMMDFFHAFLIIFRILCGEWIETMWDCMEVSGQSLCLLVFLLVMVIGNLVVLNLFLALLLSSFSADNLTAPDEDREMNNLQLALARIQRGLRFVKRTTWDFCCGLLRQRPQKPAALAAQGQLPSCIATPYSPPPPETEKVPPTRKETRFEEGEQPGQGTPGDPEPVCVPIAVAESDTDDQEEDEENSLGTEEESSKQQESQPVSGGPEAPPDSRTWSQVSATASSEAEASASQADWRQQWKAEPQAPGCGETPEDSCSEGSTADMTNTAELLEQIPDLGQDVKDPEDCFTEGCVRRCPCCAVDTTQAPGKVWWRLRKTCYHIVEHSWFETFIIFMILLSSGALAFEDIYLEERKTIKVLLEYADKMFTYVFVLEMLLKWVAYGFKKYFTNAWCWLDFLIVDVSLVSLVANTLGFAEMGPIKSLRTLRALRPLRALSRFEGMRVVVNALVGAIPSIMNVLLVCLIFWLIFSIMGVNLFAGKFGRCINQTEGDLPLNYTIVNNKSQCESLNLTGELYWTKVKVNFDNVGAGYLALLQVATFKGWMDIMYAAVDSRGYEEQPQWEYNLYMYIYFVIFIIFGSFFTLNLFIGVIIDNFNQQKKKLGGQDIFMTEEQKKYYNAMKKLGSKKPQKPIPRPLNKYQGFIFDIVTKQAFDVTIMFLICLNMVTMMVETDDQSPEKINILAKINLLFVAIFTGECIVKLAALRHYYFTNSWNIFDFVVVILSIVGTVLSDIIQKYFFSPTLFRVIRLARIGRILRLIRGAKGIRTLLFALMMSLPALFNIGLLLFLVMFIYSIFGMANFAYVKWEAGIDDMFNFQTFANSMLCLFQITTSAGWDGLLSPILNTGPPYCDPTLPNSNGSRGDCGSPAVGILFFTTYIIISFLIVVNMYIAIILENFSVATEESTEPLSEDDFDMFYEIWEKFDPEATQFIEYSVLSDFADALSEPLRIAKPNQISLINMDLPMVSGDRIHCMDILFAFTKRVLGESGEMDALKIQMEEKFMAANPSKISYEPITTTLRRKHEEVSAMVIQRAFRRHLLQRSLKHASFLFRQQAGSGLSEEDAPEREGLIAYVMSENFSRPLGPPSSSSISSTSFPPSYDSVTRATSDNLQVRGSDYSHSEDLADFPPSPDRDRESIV

Turning to `CC[C@H](C)[C@@H]1NC(=O)[C@@H]2CSSC[C@@H]3NC(=O)[C@H](C(C)C)NC(=O)[C@H](CC(C)C)NC(=O)[C@H](CC(N)=O)NC(=O)[C@@H]4CCCN4C(=O)[C@H](CCCNC(=N)N)NC(=O)[C@H](CSSC[C@H](NC(=O)[C@@H](N)CC(=O)O)C(=O)N[C@@H](CC(C)C)C(=O)NCC(=O)N[C@@H](Cc4ccccc4)C(=O)N[C@@H](CCSC)C(=O)N[C@@H](CCCNC(=N)N)C(=O)N[C@@H](CCCCN)C(=O)N2)NC(=O)[C@H](CSSC[C@@H](C(=O)N[C@@H](CCCCN)C(=O)N[C@@H](Cc2ccc(O)cc2)C(=O)N[C@H](C(=O)N[C@@H](Cc2ccccc2)C(N)=O)C(C)C)NC(=O)[C@H](Cc2c[nH]c4ccccc24)NC(=O)[C@H](CCCCN)NC(=O)[C@H](Cc2cnc[nH]2)NC(=O)[C@H](CCCCN)NC(=O)[C@H](CCCNC(=N)N)NC(=O)[C@H](CO)NC3=O)NC(=O)[C@H](CCCCN)NC(=O)[C@H](CC(=O)O)NC(=O)[C@H](CC(N)=O)NC(=O)[C@H](CC(=O)O)NC(=O)[C@@H]2CCCN2C1=O` [compound 54] (H-DCLGFMRKCIPDNDKCCRPNLVCSRKHKWCKYVF-NH2; disulfide 2-17, 9-23, 16-30), the IC50 in assay [1] (Table 22, IonWorks Quattro, use, […], read-out: IWQ Use Nav1.7) came out at 0.05 µM; in assay [2] (Table 22, IonWorks Quattro, use, […], read-out: IWQ Use Nav1.5), 7.96 µM; in assay [3] (Table 22, IonWorks Quattro, use, […], read-out: IWQ Use Nav1.3), 0.02 µM.
As for `CC[C@H](C)[C@@H]1NC(=O)[C@@H]2CSSC[C@@H]3NC(=O)[C@H](C(C)C)NC(=O)[C@H](CC(C)C)NC(=O)[C@H](CC(N)=O)NC(=O)[C@@H]4CCCN4C(=O)[C@H](CCCNC(=N)N)NC(=O)[C@H](CSSC[C@H](NC(=O)[C@@H](N)CC(=O)O)C(=O)N[C@@H](CC(C)C)C(=O)NCC(=O)N[C@@H](Cc4ccccc4)C(=O)N[C@@H](CCSC)C(=O)N[C@@H](CCCNC(=N)N)C(=O)N[C@@H](CCCCN)C(=O)N2)NC(=O)[C@H](CSSC[C@@H](C(=O)N[C@@H](CCCCN)C(=O)N[C@@H](Cc2ccc(O)cc2)C(=O)N[C@H](C(=O)N[C@@H](Cc2ccccc2)C(N)=O)C(C)C)NC(=O)[C@H](Cc2c[nH]c4ccccc24)NC(=O)[C@H](CCCCN)NC(=O)[C@H](CCCCN)NC(=O)[C@H]([C@@H](C)O)NC(=O)[C@H](CCCNC(=N)N)NC(=O)[C@H](CO)NC3=O)NC(=O)[C@H](CCCCN)NC(=O)[C@H](CC(=O)O)NC(=O)[C@H](CC(N)=O)NC(=O)[C@H](CC(=O)O)NC(=O)[C@@H]2CCCN2C1=O` [compound 55] (H-DCLGFMRKCIPDNDKCCRPNLVCSRTKKWCKYVF-NH2; disulfide 2-17, 9-23, 16-30), the IC50 in assay [1] (Table 23, IonWorks Quattro, use, […], read-out: IWQ Use Nav1.7) turned out to be 1.51 µM; in assay [2] (Table 23, IonWorks Quattro, use, […], read-out: IWQ Use Nav1.5), 11.5 µM; in assay [3] (Table 23, IonWorks Quattro, use, […], read-out: IWQ Use Nav1.3), 2.48 µM.
In the case of `CC[C@H](C)[C@@H]1NC(=O)[C@@H]2CSSC[C@@H]3NC(=O)[C@H](C(C)C)NC(=O)[C@H](CC(C)C)NC(=O)[C@H](CC(N)=O)NC(=O)[C@@H]4CCCN4C(=O)[C@H](CCCNC(=N)N)NC(=O)[C@H](CSSC[C@H](NC(=O)[C@@H](N)CC(=O)O)C(=O)N[C@@H](CC(C)C)C(=O)NCC(=O)N[C@@H](Cc4ccccc4)C(=O)N[C@@H](CCSC)C(=O)N[C@@H](CCCNC(=N)N)C(=O)N[C@@H](CCCCN)C(=O)N2)NC(=O)[C@H](CSSC[C@@H](C(=O)N[C@@H](CCCCN)C(=O)N[C@@H](Cc2ccc(O)cc2)C(=O)N[C@H](C(=O)N[C@@H](Cc2ccccc2)C(N)=O)C(C)C)NC(=O)[C@H](CCCCN)NC(=O)[C@H](CCCCN)NC(=O)[C@H](Cc2cnc[nH]2)NC(=O)[C@H]([C@@H](C)O)NC(=O)[C@H](CCCNC(=N)N)NC(=O)[C@H](CO)NC3=O)NC(=O)[C@H](CCCCN)NC(=O)[C@H](CC(=O)O)NC(=O)[C@H](CC(N)=O)NC(=O)[C@H](CC(=O)O)NC(=O)[C@@H]2CCCN2C1=O` [compound 56] (H-DCLGFMRKCIPDNDKCCRPNLVCSRTHKKCKYVF-NH2; disulfide 2-17, 9-23, 16-30), the IC50 in assay [1] is 20.1 µM; in assay [2] (IWQ Use Nav1.5 (μM)), 14.7 µM; in assay [3], 24.5 µM.
With `CC[C@H](C)[C@@H]1NC(=O)[C@@H]2CSSC[C@@H]3NC(=O)[C@H](C(C)C)NC(=O)[C@H](CC(C)C)NC(=O)[C@H](CC(N)=O)NC(=O)[C@@H]4CCCN4C(=O)[C@H](CCCNC(=N)N)NC(=O)[C@H](CSSC[C@H](NC(=O)[C@@H](N)CC(=O)O)C(=O)N[C@@H](CC(C)C)C(=O)NCC(=O)N[C@@H](Cc4ccccc4)C(=O)N[C@@H](CCSC)C(=O)N[C@@H](CCCNC(=N)N)C(=O)N[C@@H](CCCCN)C(=O)N2)NC(=O)[C@H](CSSC[C@@H](C(=O)N[C@@H](CCCCN)C(=O)N[C@@H](CCCCN)C(=O)N[C@H](C(=O)N[C@@H](Cc2ccccc2)C(N)=O)C(C)C)NC(=O)[C@H](Cc2c[nH]c4ccccc24)NC(=O)[C@H](CCCCN)NC(=O)[C@H](Cc2cnc[nH]2)NC(=O)[C@H]([C@@H](C)O)NC(=O)[C@H](CCCNC(=N)N)NC(=O)[C@H](CO)NC3=O)NC(=O)[C@H](CCCCN)NC(=O)[C@H](CC(=O)O)NC(=O)[C@H](CC(N)=O)NC(=O)[C@H](CC(=O)O)NC(=O)[C@@H]2CCCN2C1=O` [compound 57] (H-DCLGFMRKCIPDNDKCCRPNLVCSRTHKWCKKVF-NH2; disulfide 2-17, 9-23, 16-30), the IC50 in assay [1] (Table 25, IonWorks Quattro, use, […], read-out: IWQ Use Nav1.7) was determined as 4.96 µM; in assay [2] (Table 25, IonWorks Quattro, use, […], read-out: IWQ Use Nav1.5), 10.9 µM; in assay [3] (Table 25, IonWorks Quattro, use, […], read-out: IWQ Use Nav1.3) it was 4.19 µM.
On to `CC[C@H](C)[C@@H]1NC(=O)[C@@H]2CSSC[C@@H]3NC(=O)[C@H](C(C)C)NC(=O)[C@H](CC(C)C)NC(=O)[C@H](CC(N)=O)NC(=O)[C@@H]4CCCN4C(=O)[C@H](CCCNC(=N)N)NC(=O)[C@H](CSSC[C@H](NC(=O)[C@@H](N)CC(=O)O)C(=O)N[C@@H](CC(C)C)C(=O)NCC(=O)N[C@@H](Cc4ccccc4)C(=O)N[C@@H](CCSC)C(=O)N[C@@H](CCCNC(=N)N)C(=O)N[C@@H](CCCCN)C(=O)N2)NC(=O)[C@H](CSSC[C@@H](C(=O)N[C@@H](CCCCN)C(=O)N[C@@H](Cc2ccc(O)cc2)C(=O)N[C@@H](CCCCN)C(=O)N[C@@H](Cc2ccccc2)C(N)=O)NC(=O)[C@H](Cc2c[nH]c4ccccc24)NC(=O)[C@H](CCCCN)NC(=O)[C@H](Cc2cnc[nH]2)NC(=O)[C@H]([C@@H](C)O)NC(=O)[C@H](CCCNC(=N)N)NC(=O)[C@H](CO)NC3=O)NC(=O)[C@H](CCCCN)NC(=O)[C@H](CC(=O)O)NC(=O)[C@H](CC(N)=O)NC(=O)[C@H](CC(=O)O)NC(=O)[C@@H]2CCCN2C1=O` [compound 58] (H-DCLGFMRKCIPDNDKCCRPNLVCSRTHKWCKYKF-NH2; disulfide 2-17, 9-23, 16-30), for which the IC50 in assay [1] (Table 26, IonWorks Quattro, use, […], read-out: IWQ Use Nav1.7) amounted to 0.07 µM; in assay [2] (Table 26, IonWorks Quattro, use, […], read-out: IWQ Use Nav1.5), 9.56 µM; in assay [3] (Table 26, IonWorks Quattro, use, […], read-out: IWQ Use Nav1.3), 0.07 µM.
Regarding `CC[C@H](C)[C@@H]1NC(=O)[C@@H]2CSSC[C@@H]3NC(=O)[C@H](C(C)C)NC(=O)[C@H](CC(C)C)NC(=O)[C@H](CC(N)=O)NC(=O)[C@@H]4CCCN4C(=O)[C@H](CCCNC(=N)N)NC(=O)[C@H](CSSC[C@H](NC(=O)[C@@H](N)CC(=O)O)C(=O)N[C@@H](CC(C)C)C(=O)NCC(=O)N[C@@H](Cc4ccccc4)C(=O)N[C@@H](CCSC)C(=O)N[C@@H](CCCNC(=N)N)C(=O)N[C@@H](CCCCN)C(=O)N2)NC(=O)[C@H](CSSC[C@@H](C(=O)N[C@@H](CCCCN)C(=O)N[C@@H](Cc2ccc(O)cc2)C(=O)N[C@H](C(=O)N[C@@H](CCCCN)C(N)=O)C(C)C)NC(=O)[C@H](Cc2c[nH]c4ccccc24)NC(=O)[C@H](CCCCN)NC(=O)[C@H](Cc2cnc[nH]2)NC(=O)[C@H]([C@@H](C)O)NC(=O)[C@H](CCCNC(=N)N)NC(=O)[C@H](CO)NC3=O)NC(=O)[C@H](CCCCN)NC(=O)[C@H](CC(=O)O)NC(=O)[C@H](CC(N)=O)NC(=O)[C@H](CC(=O)O)NC(=O)[C@@H]2CCCN2C1=O` [compound 59] (H-DCLGFMRKCIPDNDKCCRPNLVCSRTHKWCKYVK-NH2; disulfide 2-17, 9-23, 16-30), the IC50 in assay [1] (IonWorks Quattro, use-dependent, […], read-out: IWQ Use Nav1.7) was 5.68 µM; in assay [2] (setting [4]), 18.1 µM; in assay [3] (setting [5]), 7.74 µM.
For the compound `CC[C@H](C)[C@@H]1NC(=O)[C@@H]2CSSC[C@@H]3NC(=O)[C@H](C(C)C)NC(=O)[C@H](CC(C)C)NC(=O)[C@H](CC(N)=O)NC(=O)[C@@H]4CCCN4C(=O)[C@H](CCCNC(=N)N)NC(=O)[C@H](CSSC[C@H](NC(=O)[C@@H](N)CC(=O)O)C(=O)N[C@@H](CC(C)C)C(=O)NCC(=O)N[C@@H](Cc4ccccc4)C(=O)N[C@@H](CCSC)C(=O)N[C@@H](CCCNC(=N)N)C(=O)N[C@@H](CCCCN)C(=O)N2)NC(=O)[C@H](CSSC[C@@H](C(=O)N[C@@H](CCCCN)C(=O)N[C@@H](Cc2ccc(O)cc2)C(=O)N[C@H](C(=O)N[C@@H](Cc2ccccc2)C(=O)N[C@@H](CCCCN)C(N)=O)C(C)C)NC(=O)[C@H](Cc2c[nH]c4ccccc24)NC(=O)[C@H](CCCCN)NC(=O)[C@H](Cc2c[nH]cn2)NC(=O)[C@H]([C@@H](C)O)NC(=O)[C@H](CCCNC(=N)N)NC(=O)[C@H](CO)NC3=O)NC(=O)[C@H](CCCCN)NC(=O)[C@H](CC(=O)O)NC(=O)[C@H](CC(N)=O)NC(=O)[C@H](CC(=O)O)NC(=O)[C@@H]2CCCN2C1=O` [compound 60], the IC50 was determined as 0.59 µM in assay [1] (IonWorks Quattro, use-dependent, […], read-out: IWQ Use Nav1.7 (μm)); 12.5 µM in assay [2] (setting [4]); 0.21 µM in assay [3] (setting [5]).
